{"source": "patent US20190105367A1", "about": "“ANTIMICROBIAL 4-OXOQUINOLIZINES” (Emergent Product Development Gaithersburg Inc., priority 2011, published 2019)", "key": {"[1]": {"test_system": "A. baumannii ATCC 19606", "assay": "Preliminary MBC without and with sub-inhibitory polymyxin B (Example 4)", "assay_type": "cell-based, Acinetobacter baumannii", "conditions": "for MBC: 2nd experiment"}, "[2]": {"test_system": "A. baumannii A489", "assay": "MIC without and with sub-inhibitory polymyxin B (Example 4)", "assay_type": "cell-based, Acinetobacter baumannii", "conditions": "A. baumannii A489"}, "[3]": {"test_system": "Acinetobacter sp. (H064200250)", "assay": "MIC without and with sub-inhibitory polymyxin B (Example 4)", "assay_type": "cell-based"}, "[4]": {"test_system": "A. baumannii A473", "assay": "MIC without and with sub-inhibitory polymyxin B (Example 4)", "assay_type": "cell-based, Acinetobacter baumannii", "conditions": "A. baumannii A473"}, "[5]": {"test_system": "A. baumannii A472", "assay": "MIC without and with sub-inhibitory polymyxin B (Example 4)", "assay_type": "cell-based, Acinetobacter baumannii", "conditions": "A. baumannii A472; for MIC: 2nd experiment"}, "[6]": {"test_system": "A. baumannii A329", "assay": "Preliminary MBC without and with sub-inhibitory polymyxin B (Example 4)", "assay_type": "cell-based, Acinetobacter baumannii", "conditions": "for MBC: 2nd experiment"}, "[7]": {"test_system": "A. baumannii ATCC 19606", "assay": "MIC without and with sub-inhibitory polymyxin B (Example 4)", "assay_type": "cell-based, Acinetobacter baumannii"}, "[8]": {"test_system": "strains of A. baumannii and one strain of Acinetobacter sp.", "assay": "MIC with sub-inhibitory concentrations (0.25x MIC) of polymyxin B, panel of Acinetobacter strains (Example 4)", "assay_type": "cell-based"}, "[9]": {"test_system": "A. baumannii A401", "assay": "Preliminary MBC without and with sub-inhibitory polymyxin B (Example 4)", "assay_type": "cell-based, Acinetobacter baumannii", "conditions": "for MBC: 2nd experiment"}, "[10]": {"test_system": "A. baumannii A472", "assay": "Preliminary MBC without and with sub-inhibitory polymyxin B (Example 4)", "assay_type": "cell-based, Acinetobacter baumannii", "conditions": "A. baumannii A472, preliminary MBC; for MBC: 2nd experiment"}, "[11]": {"test_system": "A. baumannii NCTC 13301", "assay": "MIC without and with sub-inhibitory polymyxin B (Example 4)", "assay_type": "cell-based, Acinetobacter baumannii", "conditions": "A. baumannii NCTC 13301, 2nd experiment"}, "[12]": {"test_system": "A. baumannii J2", "assay": "MIC without and with sub-inhibitory polymyxin B (Example 4)", "assay_type": "cell-based, Acinetobacter baumannii", "conditions": "A. baumannii J2; +[…] PB; 2nd experiment"}, "[13]": {"conditions": "A. baumannii ATCC 19606, +0.06 μg/ml polymyxin B, 1st experiment"}, "[14]": {"conditions": "+[…] polymyxin B, 1st experiment"}, "[15]": {"conditions": "without polymyxin B, 1st experiment"}, "[16]": {"conditions": "Acinetobacter spp. H064200250 (OXA51), +[…] PB, 2nd experiment"}, "[17]": {"conditions": "A. baumannii ATCC 19606, +0.06 μg/ml PB, 2nd experiment"}}, "note": "Like-named read-outs stand apart in the source and are kept apart here.", "data": [{"substance": "8-[(3S)-3-aminocyclopentyl]-1- cyclopropyl-7-fluoro-9-methyl- 4-oxo-quinolizine-3-carboxylic acid [Compound 10, reference compound]", "values": [{"measurement": "MBC", "setting": "[1]; A. baumannii ATCC 19606, +0.06 μg/ml PB", "result": 0.03, "unit": "µg/mL"}, {"measurement": "MBC +0.06 μg/ml PB", "setting": "[1]; [13]", "result": 0.03, "unit": "µg/mL"}, {"measurement": "MBC", "setting": "[1]; A. baumannii ATCC 19606, without PB", "result": 0.125, "unit": "µg/mL"}, {"measurement": "MIC", "setting": "[2]; +[…] PB, 2nd experiment", "result": 0.5, "unit": "µg/mL"}, {"measurement": "MIC without PB/MIC + PB", "setting": "[2]; +[…] PB, 2nd experiment", "result": 2}, {"measurement": "MIC +[…] PB", "setting": "[2]; [14]", "result": 1.00, "unit": "µg/mL"}, {"measurement": "MIC without PB/MIC + PB", "setting": "[2]; ratio, PB […], 1st experiment", "result": 1}, {"measurement": "MIC", "setting": "[2]; without PB, 2nd experiment", "result": 1, "unit": "µg/mL"}, {"measurement": "MIC without PB", "setting": "[2]; [15]", "result": 1, "unit": "µg/mL"}, {"measurement": "MIC +[…] PB", "setting": "[3]", "result": 1, "unit": "µg/mL"}, {"measurement": "MIC without PB/MIC + PB", "setting": "[3]", "result": 2}, {"measurement": "MIC", "setting": "[3]; [16]", "result": 1, "unit": "µg/mL"}, {"measurement": "MIC without PB/MIC + PB", "setting": "[3]; [16]", "result": 1}, {"measurement": "MIC", "setting": "[3]; Acinetobacter spp. H064200250 (OXA51), without PB, 2nd experiment", "result": 1, "unit": "µg/mL"}, {"measurement": "MIC without PB", "setting": "[3]; Acinetobacter spp. H064200250, without polymyxin B, 1st experiment", "result": 2, "unit": "µg/mL"}, {"measurement": "MIC", "setting": "[4]; +0.06 μg/ml PB, 2nd experiment", "result": 0.5, "unit": "µg/mL"}, {"measurement": "MIC without PB/MIC + PB", "setting": "[4]; +0.06 μg/ml PB, 2nd experiment", "result": 0}, {"measurement": "MIC without PB", "setting": "[4]; [15]", "result": 1, "unit": "µg/mL"}, {"measurement": "MIC", "setting": "[5]; +[…] PB", "result": 0.5, "unit": "µg/mL"}, {"measurement": "MIC +[…] PB", "setting": "[5]; [14]", "result": 0.5, "unit": "µg/mL"}, {"measurement": "MIC without PB/MIC + PB", "setting": "[5]; ratio, PB […], 1st experiment", "result": 2}, {"measurement": "MIC", "setting": "[5]; without PB", "result": 1, "unit": "µg/mL"}, {"measurement": "MIC without PB", "setting": "[5]; [15]", "result": 1, "unit": "µg/mL"}, {"measurement": "MBC", "setting": "[6]; A. baumannii A329, +0.06 μg/ml PB", "result": 2, "unit": "µg/mL"}, {"measurement": "MBC", "setting": "[6]; A. baumannii A329, without PB", "result": 2, "unit": "µg/mL"}, {"measurement": "MBC without PB", "setting": "[6]; A. baumannii A329, without polymyxin B, 1st experiment", "result": 2, "unit": "µg/mL"}, {"measurement": "MIC", "setting": "[7]; [17]", "result": 0.06, "unit": "µg/mL"}, {"measurement": "MIC without PB/MIC + PB", "setting": "[7]; [17]", "result": 2}, {"measurement": "MIC +0.06 μg/ml PB", "setting": "[7]; [13]", "result": 0.03, "unit": "µg/mL"}, {"measurement": "MIC without PB/MIC + PB", "setting": "[7]; A. baumannii ATCC 19606, ratio, PB 0.06 μg/ml, 1st experiment", "result": 256}, {"measurement": "MIC", "setting": "[7]; A. baumannii ATCC 19606, without PB, 2nd experiment", "result": 0.125, "unit": "µg/mL"}, {"measurement": "MIC", "setting": "[7]; A. baumannii ATCC 19606, without PB, value in parentheses marked *, mark not explained, 2nd experiment", "result": 0.06, "unit": "µg/mL"}, {"measurement": "Activity against the A. baumannii ATCC 19606 strain", "setting": "[7]; with and without sub-inhibitory concentrations of polymyxin B", "result": "potent activities"}, {"measurement": "Change of activity (MIC) in presence of polymyxin B compared to without polymyxin B", "setting": "[8]", "result": "less potentiated"}, {"measurement": "Range ratios MIC without PB/MIC with PB Oct. 1, 2008 n = 8", "setting": "[8]; 1st experiment", "result": "1-8"}, {"measurement": "MIC range with PB (0.25x MIC) Oct. 1, 2008 n = 8", "setting": "[8]; 1st experiment, […] polymyxin B, ATCC 19606, A329, A390 and A473 not taken", "result": "0.5 to 8", "unit": "µg/mL"}, {"measurement": "Range ratios MIC without PB/MIC with PB Oct. 14, 2008 n = 11", "setting": "[8]; 2nd experiment", "result": "1-8"}, {"measurement": "MIC range with PB (0.25x MIC) Oct. 14, 2008 n = 11", "setting": "[8]; 2nd experiment, 0.06 μg/ml polymyxin B, all strains except the ATCC strain", "result": "0.25 to 2", "unit": "µg/mL"}, {"measurement": "MBC", "setting": "[9]; A baumannii A 401, +0.06 μg/ml PB", "result": 1, "unit": "µg/mL"}, {"measurement": "MBC +0.06 μg/ml PB", "setting": "[9]; A baumannii A 401, +0.06 μg/ml polymyxin B, 1st experiment", "result": 1.00, "unit": "µg/mL"}, {"measurement": "MBC", "setting": "[9]; A baumannii A 401, without PB", "result": 1, "unit": "µg/mL"}, {"measurement": "MBC without PB", "setting": "[9]; A baumannii A 401, without polymyxin B, 1st experiment", "result": 1, "unit": "µg/mL"}, {"measurement": "MBC", "setting": "[10]; +[…] PB", "result": 0.5, "unit": "µg/mL"}, {"measurement": "MBC +[…] PB", "setting": "[10]; [14]", "result": 0.25, "unit": "µg/mL"}, {"measurement": "MBC", "setting": "[10]; without PB", "result": 1, "unit": "µg/mL"}, {"measurement": "MBC without PB", "setting": "[10]; [15]", "result": 1, "unit": "µg/mL"}, {"measurement": "MIC", "setting": "[11]; +[…] PB", "result": 0.5, "unit": "µg/mL"}, {"measurement": "MIC without PB/MIC + PB", "setting": "[11]; +[…] PB", "result": 4}, {"measurement": "MIC", "setting": "[11]; without PB", "result": 2, "unit": "µg/mL"}, {"measurement": "MIC", "setting": "[12]", "result": 0.25, "unit": "µg/mL"}]}]}
